The values below come from publication PMC11823594, “Durlobactam in combination with β-lactams to combat Mycobacterium abscessus” (Antimicrobial Agents and Chemotherapy, 2024).

Like-named read-outs stand apart in the source and are kept apart here.

One assay has as its target T1, PBP-lipo (Mycobacteroides abscessus, UniProt B1MDC3).
T1 construct: made in house; host or cells: Escherichia coli BL21 (DE3)
Briefly: Steady-state kinetics with nitrocefin (Ki,app). The assay is classed as biochemical. To be noted: for Ki: nitrocefin at 5 × Km, read-out: Ki,app PBP-lipo (converted); for Ratio of fCss,avg to Ki,app, PBP-lipo: in parentheses in Table 3. The procedure: (§1) Steady-state kinetic studies were conducted using purified LDTs and PBPs (LDT1-5, PBP B, PBP-lipo, and DDC) as previously described ([20]). The assays were performed using a BioTek Synergy2 multimode reader in conjunction with Gen5 analysis software. Increasing concentrations of NCF (Δε482 = 17,400 M^⁻¹ cm^⁻¹) were used, while fixed concentrations of the LDTs and PBPs were monitored for changes in absorbance at 482 nm over a time period of 0 to 10 min. To determine reaction velocities, a 0.25 cm path length was employed. The steady-state kinetic parameters (Vmax, kcat, and Km) were obtained by fitting the data to the Henri-Michaelis-Menten equation using a nonlinear least-squares fit in Origin 8.1 software (OriginLab, Northampton, MA). The reaction rate (v) at a given substrate concentration ([S]) was calculated according to the following equations: […]
To determine the apparent inhibition constants (Ki,app) for β-lactams and BLIs, the following experimental condition was employed: NCF as a substrate at a concentration of 5 × Km, LDT/ PBP enzymes with fixed concentration, and β-lactams and BLIs with various concentrations. Changes in absorbance at 482 nm were measured over a period of 0–30 min for each concentration of β-lactams and BLIs. Data were linearized using a Dixon plot, plotting the inverse changes in absorbance (1/ΔA) against the concentrations of β-lactams and BLIs. The observed Ki,app was determined directly from the Dixon plot, and these values were corrected for substrate concentration and affinity for the LDT using the following equation:
(§2) Ki,app=observed Ki,app/1+[NCF]/Km NCF

For another assay, the target named is LDT3 (Mycobacterium abscessus, UniProt B1MHQ4). Briefly: Mass spectrometry of covalent adduct formation. The assay is classed as binding. Conditions: protein:drug 1:20, 2 h; mass accuracy ±5 Da; (−) = no change. The procedure:
(§3) Truncated sequences of LDT1-5, DDC, PBP B, and PBP-lipo (Δ1–41) were generated by Celtek Biosciences and cloned into the pET28(a) + vector with a tobacco etch virus (TEV) protease cleavage site before the start codon. Clones were transformed into Escherichia coli BL21 (DE3) and grown to an OD600 of 0.6–0.8. Protein expression was induced with 0.25 mM isopropyl β-d-1-thiogalactopyranoside (IPTG) and incubated for 18 h at 18°C. Cell pellets were collected and stored at −20°C overnight, then resuspended in a buffer containing 50 mM Tris (pH 8.0), 400 mM sodium chloride, and 1 mM Tris (2-carboxyethyl) phosphine hydrochloride (TCEP), followed by sonication and centrifugation. The supernatant was purified using a His Prep FF 16/10 column (GE Healthcare) and eluted with 500 mM imidazole. Eluted protein was dialyzed overnight at 4°C in a buffer with 50 mM Tris (pH 8.0), 150 mM sodium chloride, and 0.5 mM TCEP in the presence of His-tagged TEV protease. To remove the His tag, the mixture was passed over the His Prep FF 16/10 column again.
(§4) The purified proteins listed above were incubated at room temperature with β-lactams or BLIs at a molar ratio of 1:20 for 2 h. The reactions were then quenched with acetonitrile and diluted to 1 mL with 0.1% formic acid in water. Samples were analyzed using a quadrupole time-of-flight (Q-TOF) Waters Synapt-G2-Si electrospray ionization mass spectrometer (ESI-MS) and a Waters Acquity H class ultra-performance liquid chromatography (UPLC) system, equipped with a BEH C18 1.7 µm column (2.1 × 50 mm). The MS was tuned with the following settings: capillary voltage set at 3 kV, sampling cone at 35 V, source offset at 35, source temperature of 100°C, desolvation temperature of 500°C, cone gas flow rate at 100 L/h, desolvation gas flow rate at 800 L/h, and nebulizer set at 6.0. The mobile phases consisted of 0.1% formic acid in water and 0.1% formic acid in 100% acetonitrile, with gradient elution from 10% to 90% of […] over 11 min. The system’s mass accuracy was ±5 Da.

For the next assay, the target named is BlaMab (Mycobacterium abscessus, UniProt B1MCI3). The assay can be described thus: Ki,app for the β-lactamase. It is filed as biochemical.
BlaMab, sequence (B1MCI3 entry or part of it): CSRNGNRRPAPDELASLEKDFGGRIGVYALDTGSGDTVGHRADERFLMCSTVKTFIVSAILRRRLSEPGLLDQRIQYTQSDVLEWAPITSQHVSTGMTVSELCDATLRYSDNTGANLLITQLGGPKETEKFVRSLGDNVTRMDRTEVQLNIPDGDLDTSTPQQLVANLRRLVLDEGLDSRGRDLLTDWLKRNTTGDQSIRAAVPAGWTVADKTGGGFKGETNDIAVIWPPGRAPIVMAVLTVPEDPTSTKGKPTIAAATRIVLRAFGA
Assay [1] addresses T2, LDT5 (Mycobacterium abscessus, UniProt B1MM58). Briefly: Mass spectrometry of covalent adduct formation. To be noted: protein:drug 1:20, 2 h; mass accuracy ±5 Da; (−) = no change. The assay is classed as binding. How it is done:
as §3, with “Protein expression was induced with 0.25 mM isopropyl β-d-1-thiogalactopyranoside (IPTG) and incubated for 18 h at 18°C.” left out
as §4

In another assay the target is LDT1 (Mycobacterium abscessus, UniProt B1MDC1). The assay can be described thus: Mass spectrometry of covalent adduct formation. The assay is classed as binding. To be noted: protein:drug 1:20, 2 h; mass accuracy ±5 Da; (−) = no change. How it is done:
as §3, with “Protein expression was induced with 0.25 mM isopropyl β-d-1-thiogalactopyranoside (IPTG) and incubated for 18 h at 18°C.” left out
as §4

The target of another assay is LDT2 (Mycobacterium abscessus, UniProt B1MMQ4). Briefly: Mass spectrometry of covalent adduct formation. The assay is classed as binding. Conditions: protein:drug 1:20, 2 h; mass accuracy ±5 Da; (−) = no change. The procedure: as §3, §4
LDT2, sequence (B1MMQ4 entry or part of it): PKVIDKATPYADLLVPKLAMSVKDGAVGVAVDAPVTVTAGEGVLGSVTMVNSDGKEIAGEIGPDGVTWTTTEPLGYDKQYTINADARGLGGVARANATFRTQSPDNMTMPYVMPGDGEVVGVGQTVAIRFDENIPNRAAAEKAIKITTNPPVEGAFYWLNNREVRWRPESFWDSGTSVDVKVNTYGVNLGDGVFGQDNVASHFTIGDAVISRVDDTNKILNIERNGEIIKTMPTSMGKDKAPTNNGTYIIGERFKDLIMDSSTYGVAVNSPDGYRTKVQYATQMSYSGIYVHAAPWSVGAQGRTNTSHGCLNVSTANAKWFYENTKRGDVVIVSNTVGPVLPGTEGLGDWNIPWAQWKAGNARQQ
Assay [2] concerns the target T2, LDT5. The assay can be described thus: Steady-state kinetics with nitrocefin (Ki,app). It is filed as biochemical. To be noted: in parentheses in Table 3. The procedure:
as §1, with “Increasing concentrations of NCF (Δε482 = 17,400 M^⁻¹ cm^⁻¹) were used, while fixed concentrations of the LDTs and PBPs were monitored for changes in absorbance at 482 nm over a time period of 0 to 10 min.” left out
Changes in absorbance at 482 nm were measured over a period of 0–30 min for each concentration of β-lactams and BLIs. Data were linearized using a Dixon plot, plotting the inverse changes in absorbance (1/ΔA) against the concentrations of β-lactams and BLIs. The observed Ki,app was determined directly from the Dixon plot, and these values were corrected for substrate concentration and affinity for the LDT using the following equation:
as §2

A further assay concerns the target DDC (Mycobacteroides abscessus, UniProt B1MDJ1). The assay can be described thus: Mass spectrometry of covalent adduct formation. It is filed as binding. To be noted: protein:drug 1:20, 2 h; mass accuracy ±5 Da; (−) = no change. The procedure: as §3, with “Protein expression was induced with 0.25 mM isopropyl β-d-1-thiogalactopyranoside (IPTG) and incubated for 18 h at 18°C.” left out
as §4

Where [3] appears, read: read-out: Ki,app BlaMab (converted).

T1 sequence (B1MDC3 entry or part of it): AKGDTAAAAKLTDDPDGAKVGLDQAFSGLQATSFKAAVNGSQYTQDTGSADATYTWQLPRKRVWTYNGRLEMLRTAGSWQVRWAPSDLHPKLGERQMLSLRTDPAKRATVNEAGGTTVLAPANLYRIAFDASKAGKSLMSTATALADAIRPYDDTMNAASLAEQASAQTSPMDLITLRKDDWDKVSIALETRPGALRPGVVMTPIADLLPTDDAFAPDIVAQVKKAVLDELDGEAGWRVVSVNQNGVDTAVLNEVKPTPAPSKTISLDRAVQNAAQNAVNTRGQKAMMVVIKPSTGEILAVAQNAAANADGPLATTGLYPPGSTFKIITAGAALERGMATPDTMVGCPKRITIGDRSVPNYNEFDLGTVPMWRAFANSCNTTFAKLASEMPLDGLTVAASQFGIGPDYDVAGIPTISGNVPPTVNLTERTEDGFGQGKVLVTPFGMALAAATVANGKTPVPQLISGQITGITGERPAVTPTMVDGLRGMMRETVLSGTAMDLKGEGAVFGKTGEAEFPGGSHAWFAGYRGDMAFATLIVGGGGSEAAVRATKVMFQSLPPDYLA
LDT3, sequence (B1MHQ4 entry or part of it): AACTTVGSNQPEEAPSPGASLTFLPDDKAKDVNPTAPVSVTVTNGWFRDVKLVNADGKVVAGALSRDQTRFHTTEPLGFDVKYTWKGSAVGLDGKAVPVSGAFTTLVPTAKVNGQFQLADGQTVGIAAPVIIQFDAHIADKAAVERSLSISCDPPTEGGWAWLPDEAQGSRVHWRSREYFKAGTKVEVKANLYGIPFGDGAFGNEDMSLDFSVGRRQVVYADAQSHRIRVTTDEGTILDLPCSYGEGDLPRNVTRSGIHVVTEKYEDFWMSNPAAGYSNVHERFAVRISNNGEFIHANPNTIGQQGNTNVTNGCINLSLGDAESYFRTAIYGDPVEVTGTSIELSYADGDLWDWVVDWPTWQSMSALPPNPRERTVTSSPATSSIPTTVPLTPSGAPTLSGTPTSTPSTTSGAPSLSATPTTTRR
LDT1, sequence (B1MDC1 entry or part of it): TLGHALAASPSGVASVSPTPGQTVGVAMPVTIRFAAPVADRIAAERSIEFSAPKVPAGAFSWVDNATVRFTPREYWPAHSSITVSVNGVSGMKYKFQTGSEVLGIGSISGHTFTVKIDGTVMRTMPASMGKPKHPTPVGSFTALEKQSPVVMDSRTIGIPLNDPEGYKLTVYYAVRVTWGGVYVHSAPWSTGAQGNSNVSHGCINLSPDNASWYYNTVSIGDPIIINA
T2 sequence (B1MM58 entry or part of it): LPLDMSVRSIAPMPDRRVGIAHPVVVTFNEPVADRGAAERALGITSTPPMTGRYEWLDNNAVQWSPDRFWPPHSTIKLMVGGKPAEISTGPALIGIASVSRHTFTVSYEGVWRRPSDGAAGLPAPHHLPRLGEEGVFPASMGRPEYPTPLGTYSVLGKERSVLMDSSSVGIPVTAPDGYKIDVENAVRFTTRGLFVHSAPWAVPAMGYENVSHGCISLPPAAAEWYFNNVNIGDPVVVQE
DDC, sequence (B1MDJ1 entry or part of it): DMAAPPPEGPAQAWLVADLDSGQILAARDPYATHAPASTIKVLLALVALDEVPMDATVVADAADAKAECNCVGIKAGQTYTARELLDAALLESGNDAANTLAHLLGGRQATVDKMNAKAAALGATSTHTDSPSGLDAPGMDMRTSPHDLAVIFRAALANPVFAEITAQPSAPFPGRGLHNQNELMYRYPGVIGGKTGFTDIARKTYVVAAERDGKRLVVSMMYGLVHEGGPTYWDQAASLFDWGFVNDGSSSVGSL

On to `CC1(C)S[C@@H]2[C@H](NC(=O)[C@H](N)c3ccc(O)cc3)C(=O)N2[C@H]1C(=O)O` [Amoxicillin, amoxicillin], for which the Ki at PBP-lipo was 274 nM; at BlaMab (read-out: Ki,app BlaMab) it was below 13700 nM. The “Observed MW (+ change in mw), LDT3 (44,795)” value at LDT3 was 44,794 (−) Da. For the same molecule, the “Observed MW (+ change in mw), LDT5 (28,220)” value at LDT5 [1] is on record as 28,220 (−) Da. Moreover, on LDT1, the “Observed MW (+ change in mw), LDT1 (23,059)” value is 28,220 (−) Da.
Consider `NC(=O)[C@@H]1CC[C@@H]2CN1C(=O)N2OS(=O)(=O)O` [Avibactam, avibactam], for which the “Ratio of fCss,avg to Ki,app, PBP-lipo” value at PBP-lipo worked out at 1. Further, the Ki at PBP-lipo was 18900 nM; at BlaMab (setting [3]), 300 nM. The “Observed MW (+ change in mw), LDT3 (44,795)” value at LDT3 is given as 44,794 (−) Da. The “Observed MW (+ change in mw), LDT2 (39,216)” value at LDT2 is reported as 39,482 (+266) Da. Further, the “Observed MW (+ change in mw), LDT5 (28,220)” value at LDT5 [1] is given as 28,220 (−) Da. In addition, on LDT1, the “Observed MW (+ change in mw), LDT1 (23,059)” value is 23,325 (+265) Da.
With `CO/N=C(\C(=O)N[C@@H]1C(=O)N2C(C(=O)O)=C(COC(N)=O)CS[C@H]12)c1ccco1` [Cefuroxime, cefuroxime], on PBP-lipo, the “Ratio of fCss,avg to Ki,app, PBP-lipo” value came out at 0.5 and the Ki is 51800 nM. Besides, the “Ratio of fCss,avg to Ki,app, LDT5” value at LDT5 [2] is recorded as 7.5. Further, at LDT3, the “Observed MW (+ change in mw), LDT3 (44,795)” value is on record as 44,794 (−) Da. In addition, the “Observed MW (+ change in mw), LDT2 (39,216)” value at LDT2 is given as 39,597 (+381) Da. Also, the “Observed MW (+ change in mw), LDT1 (23,059)” value at LDT1 is reported as 23,059 (−) Da.
On to `CC1=C[C@@H]2CN(C(=O)N2OS(=O)(=O)O)[C@@H]1C(N)=O` [Durlobactam, durlobactam], for which, at PBP-lipo, the “Ratio of fCss,avg to Ki,app, PBP-lipo” value was determined as 133 and the Ki was 361 nM. Further, the “Ratio of fCss,avg to Ki,app, LDT5” value at LDT5 [2] was 145. Moreover, the “Observed MW (+ change in mw), LDT3 (44,795)” value at LDT3 is reported as 44,794 (−) Da. Also, at LDT2, the “Observed MW (+ change in mw), LDT2 (39,216)” value was 39,492 (+278) Da. Also, on BlaMab (setting [3]), the Ki was 3.97 nM. Further, the “Observed MW (+ change in mw), LDT5 (28,220)” value on LDT5 [1] is 28,496 (+276) Da. The “Observed MW (+ change in mw), LDT1 (23,059)” value at LDT1 is reported as 23,336 (+277) Da. In addition, on DDC, the “Observed MW (+ change in mw), DDC (26,788)” value is recorded as 27,066 (+276) Da.
On to `C[C@@H](O)[C@H]1C(=O)N2C(C(=O)O)=C(SCCN=CN)C[C@H]12` [Imipenem, imipenem], for which, at PBP-lipo, the “Ratio of fCss,avg to Ki,app, PBP-lipo” value turned out to be 22 and the Ki was 2000 nM. The “Ratio of fCss,avg to Ki,app, LDT5” value on LDT5 [2] is reported as 0.4. Moreover, on LDT3, the “Observed MW (+ change in mw), LDT3 (44,795)” value is 44,794 (−) Da. For the same molecule, the “Observed MW (+ change in mw), LDT2 (39,216)” value at LDT2 is 39,515 (+299) Da. Besides, on BlaMab (setting [3]), the Ki was 17000 nM.
Consider `C[C@@H](O)[C@H]1C(=O)N2C(C(=O)O)=C(S[C@H]3CC[S@@+]([O-])C3)S[C@H]12` [Sulopenem, sulopenem], for which, on PBP-lipo, the “Ratio of fCss,avg to Ki,app, PBP-lipo” value turned out to be 25 and the Ki is 229 nM. Besides, at LDT5 [2], the “Ratio of fCss,avg to Ki,app, LDT5” value was determined as 1.5. Besides, the “Observed MW (+ change in mw), LDT3 (44,795)” value on LDT3 was 45,143 (+349) Da. Also, at LDT2, the “Observed MW (+ change in mw), LDT2 (39,216)” value was 39,298 (+86) Da. Moreover, on LDT5 [1], the “Observed MW (+ change in mw), LDT5 (28,220)” value is recorded as 28,306 (+86) Da. In addition, the “Observed MW (+ change in mw), DDC (26,788)” value at DDC is on record as 27,138 (+349) Da.
Regarding `C[C@@H](O)[C@H]1C(=O)N2C(C(=O)O)=C(SC3CN(C4=NCCS4)C3)[C@H](C)[C@H]12` [Tebipenem, tebipenem], at PBP-lipo, the “Ratio of fCss,avg to Ki,app, PBP-lipo” value was determined as 0.05 and the Ki was 88700 nM. Also, at LDT3, the “Observed MW (+ change in mw), LDT3 (44,795)” value is recorded as 44,794 (−) Da. In addition, the “Observed MW (+ change in mw), LDT2 (39,216)” value on LDT2 is reported as 39,602 (+386) Da. In addition, at BlaMab (setting [3]), the Ki was below 13000 nM. On LDT5 [1], the “Observed MW (+ change in mw), LDT5 (28,220)” value is 28,220 (−) Da. Moreover, at LDT1, the “Observed MW (+ change in mw), LDT1 (23,059)” value is reported as 23,443 (+384) Da. In addition, the “Observed MW (+ change in mw), DDC (26,788)” value at DDC was 27,173 (+385) Da.
